# Source: ChEMBL document CHEMBL1781921, “Concise synthesis and CDK/GSK inhibitory activity of the missing 9-azapaullones” (Bioorg Med Chem Lett, 2010)
# Key:
# [1] = molecular target: Cyclin-dependent kinase 5/CDK5 activator 1 (Homo sapiens, UniProt Q00535); test: Inhibition of human recombinant CDK5/p25 assessed as incorporation of [gamma-33P]-ATP into histone H1 substrate after 30 mins by scintillation counting; assay type: protein-complex assay
# [2] = molecular target: Cyclin-dependent kinase 2/cyclin A (Homo sapiens, UniProt P24941); test: Inhibition of human recombinant CDK2/cyclin A assessed as incorporation of [gamma-33P]-ATP into histone H1 substrate after 30 mins by scintillation counting; assay type: protein-complex assay
# [3] = molecular target: T1, Glycogen synthase kinase 3 (Plasmodium falciparum (isolate 3D7), UniProt O77344); test: Inhibition of Plasmodium falciparum GSK3
# T1 sequence (O77344 whole entry): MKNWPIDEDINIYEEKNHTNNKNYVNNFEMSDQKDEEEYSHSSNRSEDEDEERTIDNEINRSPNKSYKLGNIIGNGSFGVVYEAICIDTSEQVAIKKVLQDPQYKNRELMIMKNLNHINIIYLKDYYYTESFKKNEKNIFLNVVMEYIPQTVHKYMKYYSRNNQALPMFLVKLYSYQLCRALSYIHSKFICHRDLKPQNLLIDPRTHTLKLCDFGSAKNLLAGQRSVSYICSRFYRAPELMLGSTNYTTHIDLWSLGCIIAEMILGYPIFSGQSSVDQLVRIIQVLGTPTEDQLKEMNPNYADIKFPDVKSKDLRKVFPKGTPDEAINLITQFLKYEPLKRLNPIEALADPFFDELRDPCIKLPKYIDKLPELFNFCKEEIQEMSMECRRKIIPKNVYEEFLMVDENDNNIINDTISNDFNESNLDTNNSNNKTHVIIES
# [4] = molecular target: T2, Casein kinase I isoform alpha (Sus scrofa, UniProt O19175); test: Inhibition of porcine brain CK1 assessed as incorporation of [gamma-33P]-ATP into RRKHAAIGpSAYSITA substrate after 30 mins by scintillation counting
# T2 sequence (O19175 whole entry): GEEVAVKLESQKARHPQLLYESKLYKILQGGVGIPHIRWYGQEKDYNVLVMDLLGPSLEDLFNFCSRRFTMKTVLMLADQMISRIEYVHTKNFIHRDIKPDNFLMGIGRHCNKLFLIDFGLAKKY
# CDK9/cyclin T1 = CDK9/cyclin T1 (Homo sapiens, UniProt P50750); test: Inhibition of human recombinant CDK9/cyclin T expressed in insect cells assessed as incorporation of [gamma-33P]-ATP in to pRB fragment (773 to 928) substrate after 30 mins by scintillation counting
# [5] = molecular target: Dual specificity protein kinase CLK1 (Homo sapiens, UniProt P49759); test: Inhibition of CLK1
# [6] = molecular target: Dual specificity tyrosine-phosphorylation-regulated kinase 1A (Rattus norvegicus, UniProt Q63470); test: Inhibition of rat recombinant GST-fused DYRK1A expressed in Escherichia coli assessed as assessed as incorporation of [gamma-33P]-ATP into myelin basic protein after 30 mins by scintillation counting
# [7] = Inhibition of M-phase starfish oocytes CDK1/cyclin B assessed as incorporation of [gamma-33P]-ATP into histone H1 substrate after 30 mins by scintillation counting; assay type: cell-based, Asteroidea; settings: oocyte
# Chain of Cyclin-dependent kinase 5/CDK5 activator 1 (Q00535 whole entry): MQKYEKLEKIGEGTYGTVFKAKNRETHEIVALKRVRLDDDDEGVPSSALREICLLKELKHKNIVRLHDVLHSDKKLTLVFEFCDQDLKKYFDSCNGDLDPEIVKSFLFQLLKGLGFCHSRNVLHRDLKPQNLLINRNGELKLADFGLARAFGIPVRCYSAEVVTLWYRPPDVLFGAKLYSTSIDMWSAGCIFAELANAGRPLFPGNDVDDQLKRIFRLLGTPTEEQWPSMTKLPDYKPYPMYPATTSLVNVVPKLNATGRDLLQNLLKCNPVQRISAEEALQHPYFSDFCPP
# Chain of Cyclin-dependent kinase 5/CDK5 activator 1 (Q15078 whole entry, further chain): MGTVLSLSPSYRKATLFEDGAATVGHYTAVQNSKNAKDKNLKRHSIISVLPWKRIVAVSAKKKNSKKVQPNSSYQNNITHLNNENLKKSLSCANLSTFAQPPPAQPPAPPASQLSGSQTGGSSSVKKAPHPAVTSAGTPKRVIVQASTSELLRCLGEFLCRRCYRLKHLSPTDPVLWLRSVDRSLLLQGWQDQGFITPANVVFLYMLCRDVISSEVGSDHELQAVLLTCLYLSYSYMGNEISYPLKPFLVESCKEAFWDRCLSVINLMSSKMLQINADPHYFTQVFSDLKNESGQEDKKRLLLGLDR
# Chain of CDK9/cyclin T1 (O60563 whole entry, the tested form may be a part): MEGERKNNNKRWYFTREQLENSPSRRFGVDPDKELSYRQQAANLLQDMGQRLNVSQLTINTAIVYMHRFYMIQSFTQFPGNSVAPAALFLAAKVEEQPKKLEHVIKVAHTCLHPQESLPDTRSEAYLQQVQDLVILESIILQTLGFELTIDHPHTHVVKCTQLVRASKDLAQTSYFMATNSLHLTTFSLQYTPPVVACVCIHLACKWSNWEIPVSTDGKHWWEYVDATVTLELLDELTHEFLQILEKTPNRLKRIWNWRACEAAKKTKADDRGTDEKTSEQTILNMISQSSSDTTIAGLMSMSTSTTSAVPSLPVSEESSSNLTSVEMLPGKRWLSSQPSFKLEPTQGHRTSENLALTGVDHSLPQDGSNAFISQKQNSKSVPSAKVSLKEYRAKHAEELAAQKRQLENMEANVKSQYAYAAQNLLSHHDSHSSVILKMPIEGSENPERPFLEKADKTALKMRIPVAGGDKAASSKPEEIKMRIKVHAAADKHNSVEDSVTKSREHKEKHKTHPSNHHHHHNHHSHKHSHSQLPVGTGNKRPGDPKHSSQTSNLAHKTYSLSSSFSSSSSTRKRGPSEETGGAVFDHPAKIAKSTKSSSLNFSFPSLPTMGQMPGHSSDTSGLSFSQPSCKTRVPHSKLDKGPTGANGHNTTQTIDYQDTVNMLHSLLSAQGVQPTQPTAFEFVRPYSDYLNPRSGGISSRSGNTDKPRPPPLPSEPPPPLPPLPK
# Chain of CDK9/cyclin T1 (P50750 whole entry, the tested form may be a part): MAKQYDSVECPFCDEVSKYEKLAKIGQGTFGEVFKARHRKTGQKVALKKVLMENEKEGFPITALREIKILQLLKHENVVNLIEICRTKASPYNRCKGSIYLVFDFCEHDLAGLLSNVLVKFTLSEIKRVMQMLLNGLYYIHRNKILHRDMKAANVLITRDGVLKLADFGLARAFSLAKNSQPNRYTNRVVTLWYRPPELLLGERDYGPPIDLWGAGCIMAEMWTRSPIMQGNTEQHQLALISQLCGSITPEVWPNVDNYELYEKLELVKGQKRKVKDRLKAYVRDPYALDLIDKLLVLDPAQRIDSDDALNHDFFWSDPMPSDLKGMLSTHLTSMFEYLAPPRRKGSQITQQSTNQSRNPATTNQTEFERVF
# Chain of Dual specificity protein kinase CLK1 (P49759 whole entry, the tested form may be a part): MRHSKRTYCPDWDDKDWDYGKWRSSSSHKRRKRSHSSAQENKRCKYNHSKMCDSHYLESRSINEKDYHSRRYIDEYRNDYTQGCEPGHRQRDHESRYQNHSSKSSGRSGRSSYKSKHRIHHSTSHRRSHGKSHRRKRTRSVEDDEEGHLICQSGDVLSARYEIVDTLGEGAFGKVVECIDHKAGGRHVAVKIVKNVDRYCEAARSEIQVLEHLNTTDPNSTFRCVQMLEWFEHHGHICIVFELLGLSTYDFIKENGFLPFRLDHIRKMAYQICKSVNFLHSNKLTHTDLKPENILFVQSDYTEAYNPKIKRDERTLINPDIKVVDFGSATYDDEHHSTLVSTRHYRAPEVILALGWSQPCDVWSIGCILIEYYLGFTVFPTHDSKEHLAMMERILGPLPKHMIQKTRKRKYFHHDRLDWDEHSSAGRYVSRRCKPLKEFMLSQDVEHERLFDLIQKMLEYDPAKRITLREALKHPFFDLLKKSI
Compound,IC50 [1] [µM],IC50 [2] [µM],IC50 [3] [µM],IC50 [4] [µM],IC50 (CDK9/cyclin T1) [µM],IC50 [5] [µM],IC50 [6] [µM],IC50 [7] [µM]
O=C1Cc2c([nH]c3cc[n+](Cc4ccccc4)cc23)-c2ccccc2N1,> 10,> 10,> 10,> 10,7.4,> 10,> 10,> 10
O=C1Cc2c([nH]c3ccccc23)-c2ccccc2N1 [PAULLONE],–,2.7,–,–,0.81,–,–,3

# The next compounds have a lower IC50 (CDK9/cyclin T1) than those just listed; values first:
IC50 [1] [µM],IC50 [2] [µM],IC50 [3] [µM],IC50 [4] [µM],IC50 (CDK9/cyclin T1) [µM],IC50 [5] [µM],IC50 [6] [µM],Compound,IC50 [7] [µM]
3,2.1,> 10,> 10,0.22,> 10,–,O=C1Cc2c([nH]c3ccncc23)-c2ccccc2N1,–
7.3,6.2,> 10,> 10,0.24,> 10,> 10,O=C1Cc2c([nH]c3cc[n+]([O-])cc23)-c2ccccc2N1,5.7
–,–,> 10,> 10,0.064,> 10,> 10,O=C1Cc2c([nH]c3ccc(Br)cc23)-c2ccccc2N1 [KENPAULLONE],0.5
